From US6521594B1, “Method and composition for treating thrombosis” (La Jolla Cancer Research Foundation, priority 1990, dated 2003)
Read-outs that look alike come from different tables or passages of the source.

How the values were obtained:
[1] = test system: αvβ5; experiment: αvβ5 ELISA IC50 (μM)
Source text: Table printed on a drawing sheet, FIG. 22
Title: Modifications of Ac-CNPRGD(Y-OMe)RC-NH2
(§1) Head of the field: αvβ5 ELISA IC50 (μM)
First copying reader's note: Underlining in the printed sequences marks the cyclic part; the footnote for the raised a at 'Peptide' is not printed on the sheet, and the D in D-Pen is printed as a small capital.
(§2) Where the first naming reader finds the target: head: αvβ5 ELISA IC50 (μM)

[2] = biological target: T1, platelets (Homo sapiens, UniProt P05106+P08514); experiment: Platelet aggregation assay (Examples XI.G and XII); assay type: cell-based; conditions: for fold increase in potency over analogue 1: comparator analogue 1
T1 sequence (P08514 32-1039): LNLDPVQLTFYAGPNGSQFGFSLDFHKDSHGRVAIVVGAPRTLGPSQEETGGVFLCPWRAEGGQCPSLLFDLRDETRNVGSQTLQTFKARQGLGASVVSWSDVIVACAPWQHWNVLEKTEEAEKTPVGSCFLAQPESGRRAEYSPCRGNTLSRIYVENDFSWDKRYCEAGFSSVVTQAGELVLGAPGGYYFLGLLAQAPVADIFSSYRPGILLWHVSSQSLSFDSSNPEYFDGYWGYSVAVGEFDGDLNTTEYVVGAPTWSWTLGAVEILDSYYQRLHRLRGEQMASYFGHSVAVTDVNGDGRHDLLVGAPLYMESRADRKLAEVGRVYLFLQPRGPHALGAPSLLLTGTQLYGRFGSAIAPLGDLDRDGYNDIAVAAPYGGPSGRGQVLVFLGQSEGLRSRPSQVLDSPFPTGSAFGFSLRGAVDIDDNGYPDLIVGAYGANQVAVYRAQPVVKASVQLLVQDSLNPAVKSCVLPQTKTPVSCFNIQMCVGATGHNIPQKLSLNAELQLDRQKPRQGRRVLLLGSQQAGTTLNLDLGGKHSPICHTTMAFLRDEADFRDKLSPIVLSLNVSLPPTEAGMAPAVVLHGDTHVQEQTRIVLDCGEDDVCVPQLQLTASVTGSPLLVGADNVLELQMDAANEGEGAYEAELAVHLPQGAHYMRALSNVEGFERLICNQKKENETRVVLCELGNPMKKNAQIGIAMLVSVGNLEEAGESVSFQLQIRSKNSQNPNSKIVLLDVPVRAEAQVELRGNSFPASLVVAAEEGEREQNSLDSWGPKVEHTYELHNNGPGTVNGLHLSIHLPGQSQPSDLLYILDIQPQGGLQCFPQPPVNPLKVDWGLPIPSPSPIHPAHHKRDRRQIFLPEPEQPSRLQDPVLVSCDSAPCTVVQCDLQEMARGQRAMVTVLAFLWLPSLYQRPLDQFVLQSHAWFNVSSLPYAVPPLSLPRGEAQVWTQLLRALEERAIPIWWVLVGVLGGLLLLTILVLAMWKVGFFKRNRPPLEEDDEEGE
T1 sequence (P05106 27-788): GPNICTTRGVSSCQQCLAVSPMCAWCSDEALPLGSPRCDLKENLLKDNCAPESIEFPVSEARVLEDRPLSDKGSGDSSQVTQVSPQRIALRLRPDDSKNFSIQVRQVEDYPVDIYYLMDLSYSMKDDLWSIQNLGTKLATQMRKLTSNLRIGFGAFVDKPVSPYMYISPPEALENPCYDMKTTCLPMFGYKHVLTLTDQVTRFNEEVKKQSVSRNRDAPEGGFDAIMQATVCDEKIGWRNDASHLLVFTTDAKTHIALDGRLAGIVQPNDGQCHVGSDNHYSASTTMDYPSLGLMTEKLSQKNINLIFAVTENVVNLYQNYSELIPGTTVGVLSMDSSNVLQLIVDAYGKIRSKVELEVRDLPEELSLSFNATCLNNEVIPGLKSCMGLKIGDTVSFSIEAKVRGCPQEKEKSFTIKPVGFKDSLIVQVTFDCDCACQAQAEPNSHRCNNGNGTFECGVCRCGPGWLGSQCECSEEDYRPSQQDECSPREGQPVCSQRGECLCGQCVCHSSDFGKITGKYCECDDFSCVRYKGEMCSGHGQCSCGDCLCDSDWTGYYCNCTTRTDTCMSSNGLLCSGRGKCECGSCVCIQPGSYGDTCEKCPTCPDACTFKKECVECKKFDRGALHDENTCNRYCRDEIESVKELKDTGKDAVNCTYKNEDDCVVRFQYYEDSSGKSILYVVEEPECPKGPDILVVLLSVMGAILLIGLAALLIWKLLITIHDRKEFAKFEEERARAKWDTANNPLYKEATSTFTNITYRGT
Experimental: (§3) Platelet aggregation was assessed using the method of Born, Nature 194:927-929 (1962), incorporated herein by reference. Briefly, the change in light transmission was measured through a stirred suspension of platelets in an aggregometer (Model 400 VS, Chrono-Log, Havertown, Pa., USA). Studies employing ADP were performed with platelet-rich plasma (PRP), which was obtained by low-speed centrifugation (200×g for 10 min.) of whole blood freshly drawn into trisodium citrate (at a final concentration of 11 mM). In studies using thrombin, the PRP was gel-filtered on Sepharose 2B in divalent ion-free Tyrode's solution containing 2% BSA. For all studies, the reference standard was platelet-poor plasma, which was obtained by centrifuging PRP at 1000×g for 5 min.
All aggregation studies were performed at 37° C. with a constantly stirred suspension of 3×10^8 platelets/mL. (Platelet count was determined with the aid of a hemacytometer.) Peptides and stimulants were added to these suspensions in 1% dilutions. The PRP and gel-filtered platelets were used within three hours from the time of blood collection.
The peptides described in this Example were synthesized according to the methods of Examples I and XI. Selectivity and potency were measured according to the methods of Examples II through XI. The peptide identification numbers used in this Example are consistent and relevant to this Example only. Some of the peptides are identified by other nomenclature elsewhere in this document.

[3] = biological target: T1, platelets; assay type: cell-based; conditions: ADP 10 μm; citrated PRP; read-out: ADP-Stimulated Aggregation (IC50)
Experimental: Briefly, the change in light transmission was measured through a stirred suspension of platelets in an aggregometer (Model 400 VS, Chrono-Log, Havertown, Pa., USA). […] In studies using thrombin, the PRP was gel-filtered on Sepharose 2B in divalent ion-free Tyrode's solution containing 2% BSA. For all studies, the reference standard was platelet-poor plasma, which was obtained by centrifuging PRP at 1000×g for 5 min.
(§4) All aggregation studies were performed at 37° C. with a constantly stirred suspension of 3×10^8 platelets/ml. (Platelet count was determined with the aid of a hemacytometer.) Peptides and stimulants were added to these suspensions in 1% dilutions. The PRP and gel-filtered platelets were used within three hours from the time of blood collection.
(§5) Peptide anti-aggregation potencies were determined from dose-responsive curves for the inhibition of the maximum aggregation responses stimulated by physiologic doses of ADP (10 μm) and thrombin (2 U/ml).

[4] = test system: platelets; experiment: Ex vivo inhibition of platelet aggregation (Table IV); assay type: in vivo, dog; conditions: dose as listed per peptide (bolus ± infusion)
Experimental: as §3, with “Platelet aggregation assays were performed following the methods of this Example or those of Example IX.G. Platelet” for “Platelet”, “(Nature” for “Nature”, “(1962)),” for “(1962),”
Platelet counts and ex vivo aggregation studies were performed one hour before and 1, 3, and 5 hours after application of anodal direct current.
Using the method described in Example V to measure ex vivo inhibition of platelet aggregation and the method described in Example VII to measure bleeding, four additional peptides were tested. These peptides included 11J, 11Q, 11K and 11V.

[5] = test system: αvβ5; experiment: αvβ5 ELISA IC50 (μM); remark: listed apart in the source
Source text: Table printed on a drawing sheet, FIG. 23
Title: Modification of Ac-CNPRGD(Y-OMe)RC-NH2
as §1
First copying reader's note: Underlining in the printed sequences marks the cyclised part (C to C); the footnote for the raised a on 'Peptide' is not printed on the sheet.
as §2

[6] = test system: αvβ5; experiment: αvβ5 ELISA IC50 (μM); remark: listed apart in the source
Source text: Table printed on a drawing sheet, FIG. 17
Title: Modifications of G(Pen)[…]
as §1
The patent's description of the figure: FIG. 17 is a Table showing the effect of modifications of Pen residue at position −3 (as defined, infra) on potency and selectivity.
First copying reader's note: Underlining in the printed sequences marks the cyclized part; the footnotes a and b are referenced but not printed on the sheet.
as §2

[7] = biological target: T1, platelets; experiment: Thrombin-stimulated platelet aggregation (gel-filtered platelets); assay type: cell-based; conditions: thrombin 2 U/ml
Experimental: as §4, §5

Substance: (Mpr)NPRGD(Y-OMe)RC-NH2 [compound 39]
- IC50 [1]: 3 µM

Substance: (Mpr)RGD(O-Me-Y)RC-NH2 [16A]
- reactivity in platelet aggregation relative to 8× ([2]; comparator 8×): about two-fold

Substance: (Pmp)GHRGDLRCA
- fold increase in potency over analogue 1 [2]: 2 fold

Substance: (Pmp)NPRGD(Y-OMe)RC-NH2 [compound 38]
- IC50 [1]: 4.9 µM

Substance: (t-but-am-Pmp)GHRGDLR(Pen)A
- IC50 [3]: 89 µM

Substance: Ac-(D-Pen)NPRGD(Y-OMe)RC-NH2 [compound 36]
- IC50 [1]: 6.7 µM

Substance: Ac-(Pmc)NPRGD(Y-OMe)RC-NH2 [compound 37]
- IC50 [1]: 2.34 µM

Substance: Ac-CNPKGD(Y-OMe)RC-NH2 [11Q]
- ex vivo inhibition platelet aggregation [4]: >95%

Substance: Ac-CNPRGD(O-N-Butyl-Y)RC-NH2 [analogue 34]
- fold increase in potency over analogue 1 [2]: about 150 fold

Substance: Ac-CNPRGD(Y-OMe)(Cit)C-NH2 [11S]
- IC50 [5]: 3.46 µM

Substance: Ac-CNPRGD(Y-OMe)(Nle)C-NH2 [11V]
- ex vivo inhibition platelet aggregation [4]: >98%

Substance: Ac-CNPRGD(Y-OMe)(dR)C-NH2 [11L]
- platelet aggregation potency compared with analogue 32 ([2]; comparator analogue 32): decrease in potency

Substance: Ac-CNPRGD(Y-OMe)AC-NH2 [11K] [listing 1 of 2 here]
- IC50 [5]: 8.85 µM

Substance: Ac-CNPRGD(Y-OMe)AC-NH2 [11K] [listing 2 of 2 here]
- platelet aggregation potency compared with analogue 32 ([2]; comparator analogue 32): substantial decreases
- ex vivo inhibition platelet aggregation [4]: >98%

Substance: Ac-CNPRGD(Y-OMe)EC-NH2 [11J] [listing 1 of 2 here]
- IC50 [5]: 9.47 µM

Substance: Ac-CNPRGD(Y-OMe)EC-NH2 [11J] [listing 2 of 2 here]
- fold decrease in potency versus analogue 32 ([2]; comparator analogue 32): 15 fold
- ex vivo inhibition platelet aggregation [4]: >98%

Substance: Ac-CNPRGD(Y-OMe)KC-NH2 [11R] [listing 1 of 2 here]
- IC50 [5]: 5.82 µM

Substance: Ac-CNPRGD(Y-OMe)KC-NH2 [11R] [listing 2 of 2 here]
- retained inhibitory activity versus analogue 32 ([2]; comparator analogue 32): 20%

Substance: Ac-CNPRGD(Y-OMe)LC-NH2 [compound 47]
- IC50 [5]: 7.14 µM

Substance: Ac-CNPRGD(Y-OMe)OC-NH2 [11P]
- IC50 [5]: 7.7 µM

Substance: AcCIPRGDY-OMeRCNH2 [10R]
- fold increase in platelet aggregation potency versus analogue 26 ([2]; comparator analogue 26): 3-4 fold

Substance: G(D-Pen)GHRGDLRCA [compound 2]
- IC50 [6]: 5.27 µM

Substance: G(Pen)FRGDSFCA
- IC50 [3]: < 200 µM

Substance: G(Pen)GHRGDLRCA [2G]
- IC50 [6]: 8.26 µM

Substance: G(Pen)GHRGDTRCA
- IC50 [3]: 11.3 µM
- IC50 [7]: 17 µM

Substance: G(Pen)GRGDRPCA
- IC50 [3]: 22.3 µM
